# Measurements: a melting point compilation (Tetko et al.; mined from patent text by program, amines drawn as free bases though some values may be those of a salt)
row,SMILES,melting point [°C]
1,Cn1ncc(N2CCCCC2)c(-c2ccccc2C=NO)c1=O,184 to 185
2,C=CCCC(C#N)(C#N)Cc1ccc(Cl)cc1,63.7
3,CCCCCCCC(=N)NC(=S)Nc1ccc(Cl)cc1,98 to 99
4,CS(=O)(=O)N[C@@H]1CCCC[C@H]1Nc1nc(Nc2ccc3c(c2)CNCCS3)ncc1Cl,141 to 143
5,O=Cc1ccc(OC2CCCC2)c(Oc2ccc([N+](=O)[O-])cc2Br)c1,92 to 94
6,Cc1cc(-c2nc3cccnn3c2-c2ccnc(NC(=O)c3ccoc3)c2)ccc1F,199 to 200
7,CN1C(=O)CC[C@]2(C)c3ccc(-c4ccc(C(F)(F)F)cc4F)cc3CC[C@@H]12,72 to 79
8,Cn1ccnc1SCCN1CCC(=C2c3ccn(C)c3CCn3ccnc32)CC1,200
9,CC1COc2c(N3Cc4cccc(F)c4C3)c(F)cc3c(=O)c(C(=O)O)cn1c23 (stereo unspecified),> 300
10,CCOC(=O)c1nccc(C#N)c1N,114 to 116
11,O=C(C=C1CCCN1)c1cccs1,149 to 150
12,COc1ccc(-c2ccc(C#N)cc2)nc1,93 to 95
13,O=[N+]([O-])c1ccccc1Nc1cccc(Nc2ccc(C(F)(F)F)cc2[N+](=O)[O-])c1,95 to 98
14,O=[N+]([O-])c1ccc(Sc2ccc(OCC3CO3)cc2)cc1 (stereo unspecified),96 to 99
15,CC(=O)c1ccc(-c2ccc(F)cc2F)cc1,82.5 to 83.5
16,Cc1nc(C(=O)N(C)C)c2n1-c1ccc(Cl)cc1C(c1ccccc1F)=NC2,158 to 160
17,Oc1cccc(Oc2ccc(Cl)nn2)c1,185 to 187
18,Cc1ccc(S(=O)(=O)N2CCc3ccccc3C(Oc3ccccc3)C2)cc1 (stereo unspecified),155 to 156
19,COc1ccc2c(c1)c1c(n2CCCN(C)C)CCCSCC1,79 to 80
20,COc1ccc2c(c1)C(=NO)CCO2,120 to 121
21,CCn1nc(C(C)(C)C)c2c1C(=O)NCC(c1ccc(O)cc1)=N2,264
22,CCOC(=O)C1=C(O)c2cc(OC)c(OC)cc2NC(=O)C1,218
23,CN1C(=O)N(c2cc(Cl)cc(Cl)c2)C(=O)[C@]12CN(c1ccc(Cl)nn1)C[C@H]2c1ccc(C#N)cc1 (relative stereo),125
24,CS(=O)(=O)c1ccc(-c2cc(CCCO)nn2CC2CCCCC2)cc1,94 to 95
25,O=[N+]([O-])c1cn2c(n1)OC(COc1ccc(N3CCN(NCc4ccc(-c5ccc(C(F)(F)F)cc5)cc4)CC3)cc1)CC2 (stereo unspecified),294 to 295

row,SMILES,melting point [°C]
1,NS(=O)(=O)c1ccc(NN=Cc2ccc(Br)cc2)cc1,190 to 192
2,CCOc1cc2c(Cl)cc(C)nc2nc1C,144 to 147
3,Cc1ccc(-c2ccc(/C=C/C(=O)O)o2)cc1,183 to 184
4,CC(=O)Cc1nc(/C=C/c2cccc(Cl)c2F)no1,75 to 77
5,CS(=O)(=O)Nc1ccc(CC#N)c2cn[nH]c12,223 to 225
6,O=c1c2c(c1=O)N(CCP(=O)(O)O)CC(O)CN2 (stereo unspecified),215 to 218
7,CS(=O)(=O)n1cc(F)c(=O)[nH]c1=O,223 to 224
8,NC(=O)C1CN1C(=O)Oc1ccccc1 (stereo unspecified),140 to 142
9,CC1CC(=O)NN=C1c1ccc(NCCCN)c([N+](=O)[O-])c1 (stereo unspecified),154 to 156
10,CCCCN(C(=O)c1cc(C)oc1C)C1CC(C)(C)NC(C)(C)C1,78 to 79
11,CC(Cc1cccc(C(F)(F)F)c1)N(CC(=O)O)Cc1ccccc1 (stereo unspecified),80
12,CC(C)CCCC(C)C1CCC2C3CC=C4CC(Br)CCC4(C)C3CCC12C (stereo unspecified),99.5 to 100
13,CN1OCCN(c2cc(Cl)cc(Cl)c2)C1=O,105 to 106
14,C=CCn1ccnc1C(O)(c1ccccc1)c1ccc(Cl)cc1 (stereo unspecified),165 to 166
15,O=[N+]([O-])c1ccc(S(=O)(=O)OS(=O)(=O)c2ccc([N+](=O)[O-])cc2)cc1,171 to 172
16,CC(C)=CCNc1ncnc2nc(NCCN)[nH]c12,96 to 102
17,Cn1c(=O)cnn(-c2cc(Cl)c(C(C#N)c3ccc(Cl)cc3)c(Cl)c2)c1=O (stereo unspecified),160
18,CCCCCCCCCCCCCCCCOCC(COCCCCCCCCCCCCCCCC)NCCC#N,45 to 46
19,O=C1C2CC=CCN2C(=O)N1c1cc(O)c(Cl)cc1F (stereo unspecified),195 to 197
20,c1cc(N2CCCCC2)ccc1OC12CC3CC(CC(C3)C1)C2,72 to 73.5
21,NS(=O)(=O)Oc1ccc(C(F)(F)F)cc1,111 to 112
22,NC(=O)C(Nc1ccc(Cl)cc1)c1c(Cl)cccc1Cl (stereo unspecified),178
23,CC(=O)n1ccc(-c2ccc(F)cc2)c1-c1ccc(S(C)(=O)=O)cc1,211 to 214
24,CCCCCCOc1c(CBr)ccc2c(OCCCCCC)c(CBr)ccc12,58 to 60
25,COc1cc2[nH]c(=O)[nH]c(=O)c2cc1Cl,356 to 358

# Other lines, results leading:
row,melting point [°C],SMILES
1,185 to 187,O=c1c(CCO)cnc2c3ccccc3ccn12
2,139 to 142,CC1(COC(=O)c2ccccc2)COC(CBr)(c2ccc(Cl)cc2Cl)OC1 (stereo unspecified)
3,174 to 176,Clc1cccc(Nc2ncc3cc4ccccc4n3n2)c1
4,90 to 92,O=[N+]([O-])c1ccccc1N1CCN(Cc2ccccc2)CCN1
5,218 to 219,CCc1c(Sc2ccccc2)[nH]c(=O)[nH]c1=O
6,139 to 141,CCn1c(C)c(C(C)=O)c(N=Cc2ccccc2)c1-c1ccccc1
7,115,NCCCOc1ccc(OCc2ccccc2)cc1
8,195 to 197,NC(=O)C1CCC(NC(=O)NCc2ccc3c(c2)CN(C2CCC(=O)NC2=O)C3=O)CC1 (stereo unspecified)
9,192,COc1ccc(C=C2c3ccccc3CCc3ccccc32)cc1NS(C)(=O)=O
10,88 to 89,COc1ccc(CCCC(=O)CCC(=O)O)cc1
11,108 to 110,CC(C)[C@H](NC(=O)[C@H](CC(=O)OC(C)(C)C)NC(=O)CNC(=O)c1csc(NC(=O)NCc2ccccc2)n1)C(=O)OC(C)(C)C
12,208,CCCCc1nc(S(C)=O)c(C(=O)O)n1Cc1ccc(-c2ccccc2C(=O)O)cc1 (stereo unspecified)
13,234 to 236,CCc1c2c(nn1CC)c(N)nc1ccccc12
14,101 to 102,CCNC(=Nc1ccccc1N1CCOCC1)NCC
15,50 to 52,O=C(CC(=O)OCc1ccc([N+](=O)[O-])cc1)CC1CC(=O)N1 (stereo unspecified)
16,184 to 186,Cc1cc(C)cc(NC(=O)Cc2ccc(OC3(C(=O)O)CCCC3C)cc2)c1 (stereo unspecified)
17,190 to 191,O=C(Nc1cccc(-c2ccnc3c(C(=O)c4cccs4)cnn23)c1)c1ccccc1F
18,145 to 147,CN(C)CCCCC1CCCCN1C(=O)N1c2ccccc2C(=O)Nc2cccnc21 (stereo unspecified)
19,141 to 146,CCCN(CCC)C1Cc2cc3c(cc2C1)C(=O)N(Cc1cccnc1)C3=O
20,200,CNC(=O)NNC(=S)N1N=C(c2ccc([N+](=O)[O-])cc2)c2cc3c(cc2CC1C)OCO3 (stereo unspecified)
21,98 to 100,COC(=O)C=Cc1ccc(-c2ccc(OC(F)(F)F)cc2)cc1
22,160 to 161,CC(=O)OC(COc1ccc(C(=O)O)c(O)c1)c1ccc2c(c1)C(C)(C)CCC2(C)C (stereo unspecified)
23,138 to 142,CCOC(=O)NN(C)c1cc(C)c(-c2ccc(C#N)cc2)nn1
24,159 to 161,CSc1ccc(CSc2cccc(C(=O)Nc3ccc(Cl)cn3)c2)cc1
25,272 to 274,CC(C)(C)c1nc2c(N)nc(-c3ccncc3)nc2[nH]1
26,230 to 231,O=C(O)c1cn(-c2ccc(OC(F)(F)F)c(Cl)c2)cn1

row,melting point [°C],SMILES
1,93.5 to 94.5,Cc1cc(-c2ccc(OC(C)C(O)CCc3cccnc3)cc2)ccc1C#N (stereo unspecified)
2,73 to 75,CCCCCCCc1c(C(C)C)nc(C(C)C)c(CO)c1-c1ccc(F)cc1
3,119 to 123,O=C(NC1CN(C(C(=O)O)c2ccc(OC(=O)c3ccccc3)cc2)C1=O)C(=NOC(=O)c1ccccc1)c1ccccc1 (stereo unspecified)
4,156 to 157,CCC(C)(C)c1cccc(C(=O)NN)c1O
5,134 to 142,CCOC(=O)c1cccc(C)c1S(=O)(=O)NC(=O)Nc1nc(OCC(F)(F)F)nc(N(C)C)n1
6,71 to 74,CCCCCCCCCCCCCCOc1ccc(OCc2ccccc2)c(C(=O)N(CC(=O)O)CC(=O)O)c1
7,132 to 136,Cc1ccc(S(=O)(=O)Nc2ccc(Oc3ccc4nc(COc5ccc(CC6SC(=O)NC6=O)cc5)n(C)c4c3)cc2)cc1 (stereo unspecified)
8,151 to 154,C/C(=C(\C#N)C(N)=S)N1CCC(Cc2ccccc2)CC1
9,78 to 80,CCCCCCCCn1c(=O)c2c(N3CCN(C)CC3)cc(Cl)cc2n(Cc2ccccc2)c1=O
10,75 to 78,BrCc1cc2ccc3ccccc3c2s1
11,203 to 205,CCCC(=NO)c1ccc(C(=O)O)cn1
12,103,CC(C)(O)CC(O)=C(C#N)CC(=O)Nc1ccccc1
13,190 to 191,CCOC(=O)C1=C(C(OC)OC)Nc2nccn2C1c1cccc([N+](=O)[O-])c1 (stereo unspecified)
14,143 to 150,COc1cc2c(cc1OC)N(C(=O)OCc1ccccc1)C(C)C(=CN)C2=O (stereo unspecified)
15,98 to 100,CCCCCCCCCCc1ccc(C(=O)N(O)CCCC(=O)O)cc1
16,100,c1ccc(-c2cc(OCCN3CCOCC3)[nH]n2)cc1
17,142 to 144,CCCc1c(OCCCOc2ccc(C(=O)CCC(=O)O)cc2F)ccc(C(C)=O)c1O
18,149 to 151,CCCc1c(OCCCOc2ccc(-c3csc(=S)[nH]3)c(OC)c2CCC)ccc2c1OC(C(=O)O)CC2 (stereo unspecified)
19,82 to 84,CCCCOCCCNC(c1ccccc1)C(O)c1ccccc1 (stereo unspecified)
20,215 to 219,Cn1cc(C(=O)NCc2ccc(Cl)cc2)c(=O)c2cc(CN3CCSCC3)ccc21
21,55 to 56,CCOc1ccc(NC(=O)OC(C)(C)C)c(C)c1
22,> 250,CCn1nc(-c2nc(C(=O)O)c(NCc3ccc(OC)cc3)nc2-c2ccccc2)ccc1=O
23,82 to 83,COc1cc(/C=C/C(=O)/C=C/c2ccc(O)c(OC)c2)ccc1O
24,168 to 170,Nc1ccccc1NC(=O)c1ccc(CCC(=O)NCc2cccnc2)cc1
25,210 to 212,CC(C)Nc1nc2ccccn2c(=O)c1-c1ccc(NC2CCN(C(=O)OC(C)(C)C)C2)cc1 (stereo unspecified)
